Results reported in ChEMBL document CHEMBL5376006, “Discovery of a Hidden Pocket beneath the NES Groove by Novel Noncovalent CRM1 Inhibitors” (J Med Chem, 2023).
One block for each compound: values may come before it. Calls of active or inactive are those of the source. No cut-off for these calls is given here.

Legend:
Exportin-1 [1] = target: T1, Exportin-1 (Homo sapiens, UniProt O14980); experiment: Inhibition of CRM1 (unknown origin) binding to GST-tagged NES PKI assessed as CRM1/NES band ratio incubated for 1.5 hrs by Coomassie brilliant blue staining based pull-down assay (reference value: 1.00); design: concentration or dose not given beside the values
HeLa = experiment: Antiproliferative activity against human HeLa cells assessed as inhibition of cell growth at 20 uM incubated for 72 hrs by SRB assay; format: functional, cell-based
Exportin-1 [2] = target: T1, Exportin-1; experiment: Inhibition of CRM1 (unknown origin) binding to GST-tagged NES PKI assessed as CRM1/NES band ratio at 20 uM incubated for 1.5 hrs by Coomassie brilliant blue staining based pull-down assay
Exportin-1 [3] = target: T1, Exportin-1; experiment: Inhibition of CRM1 (unknown origin) binding to GST-tagged NES PKI at 100 uM incubated for 1.5 hrs by Coomassie brilliant blue staining based pull-down assay
Exportin-1 [4] = target: T1, Exportin-1; experiment: Inhibition of GFP-fused CRM1 cargo nuclear export in human HeLa cells at 200 uM incubated for 4 hrs by confocal microscopic analysis; format: cell-based
Exportin-1 [5] = target: T1, Exportin-1; experiment: Inhibition of CRM1 cargo nuclear export in human MCF7 cells at 50 uM incubated for 4 hrs by confocal microscopic analysis; format: cell-based

T1 sequence (O14980 whole entry): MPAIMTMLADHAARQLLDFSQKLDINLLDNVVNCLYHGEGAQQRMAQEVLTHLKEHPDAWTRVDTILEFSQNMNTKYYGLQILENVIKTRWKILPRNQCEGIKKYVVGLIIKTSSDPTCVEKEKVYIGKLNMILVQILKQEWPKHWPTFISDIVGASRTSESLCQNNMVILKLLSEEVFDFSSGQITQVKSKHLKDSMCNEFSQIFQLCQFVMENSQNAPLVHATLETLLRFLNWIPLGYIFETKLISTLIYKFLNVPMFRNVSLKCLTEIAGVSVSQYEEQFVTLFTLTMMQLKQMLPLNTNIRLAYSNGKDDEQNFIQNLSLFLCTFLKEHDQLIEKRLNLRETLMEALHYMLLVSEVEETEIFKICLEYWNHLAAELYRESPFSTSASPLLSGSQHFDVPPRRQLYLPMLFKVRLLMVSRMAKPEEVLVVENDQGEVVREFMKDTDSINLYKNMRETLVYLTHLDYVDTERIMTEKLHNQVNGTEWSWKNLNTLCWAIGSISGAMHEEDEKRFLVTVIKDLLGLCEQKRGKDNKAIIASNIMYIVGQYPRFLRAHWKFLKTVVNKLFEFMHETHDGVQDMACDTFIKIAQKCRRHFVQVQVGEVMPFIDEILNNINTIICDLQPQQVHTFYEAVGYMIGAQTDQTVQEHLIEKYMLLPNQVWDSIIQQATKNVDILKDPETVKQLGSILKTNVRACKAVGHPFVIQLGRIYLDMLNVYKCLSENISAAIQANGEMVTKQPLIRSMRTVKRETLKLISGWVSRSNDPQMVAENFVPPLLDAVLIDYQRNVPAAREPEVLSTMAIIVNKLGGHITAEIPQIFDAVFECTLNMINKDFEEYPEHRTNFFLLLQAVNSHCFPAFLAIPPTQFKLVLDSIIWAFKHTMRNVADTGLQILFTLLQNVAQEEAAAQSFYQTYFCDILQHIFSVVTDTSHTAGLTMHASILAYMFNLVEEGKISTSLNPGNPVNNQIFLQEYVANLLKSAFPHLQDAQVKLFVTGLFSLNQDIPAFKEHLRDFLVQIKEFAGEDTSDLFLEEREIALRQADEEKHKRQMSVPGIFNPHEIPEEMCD

Structure (SMILES): O=C(O)c1ccc(N2CCN(c3ccc(F)cc3)CC2)c(NC(=O)c2ccc(Br)cc2)c1
Ratio (Exportin-1 [1]): 1.24

Structure (SMILES): COc1ccc(Cl)cc1N1CCN(c2ccc(C(=O)O)cc2NC(=O)c2ccc(Cl)cc2)CC1
Activity (HeLa): Active
Ratio (Exportin-1 [2]): 0.85

Structure (SMILES): Cc1ccc(C(F)(F)F)cc1N1CCN(c2ccc(C(=O)O)cc2NC(=O)c2ccc(Cl)cc2)CC1
Activity (HeLa): Active
Ratio (Exportin-1 [2]): 0.2

Structure (SMILES): O=C(O)c1ccc(N2CCCN(c3ccc(Cl)nn3)CC2)c(NC(=O)c2ccccc2)c1
Ratio (Exportin-1 [1]): 0.8

Structure (SMILES): O=C(O)c1ccc(N2CCN(c3ccccn3)CC2)c(NC(=O)c2cccc(Cl)c2)c1
Ratio (Exportin-1 [1]): 0.72

Structure (SMILES): Cc1ccc(Cl)cc1N1CCN(c2ccc(C(=O)O)cc2NC(=O)c2ccc(Br)cc2)CC1
Activity (HeLa): Active
Ratio (Exportin-1 [2]): 0.24

Structure (SMILES): Cc1ccc(C)c(N2CCN(c3ccc(C(=O)O)cc3NC(=O)c3ccc(F)cc3)CC2)c1
Ratio (Exportin-1 [1]): 0.82

Structure (SMILES): Cc1ccc(Cl)cc1N1CCN(c2ccc(C(=O)O)cc2NC(=O)c2ccc(Cl)cc2)CC1
Activity (HeLa): Active
Ratio (Exportin-1 [2]): 0.26

Structure (SMILES): COC(=O)c1ccc(N2CCN(c3cc(C)ccc3C)CC2)c(NC(=O)c2ccc(Cl)cc2)c1
inhibition (Exportin-1 [3]): inactive

Structure (SMILES): Cc1cccc(S(=O)(=O)Nc2cc(C(=O)O)ccc2N2CCN(c3ccc(Cl)cc3)CC2)c1
Ratio (Exportin-1 [1]): 1.07

Structure (SMILES): O=C(O)c1ccc(N2CCN(c3cccc(Cl)c3)CC2)c(NS(=O)(=O)c2cccc(F)c2)c1
Ratio (Exportin-1 [1]): 0.43
inhibition (Exportin-1 [4]): inactive

Structure (SMILES): O=C(O)c1ccc(N2CCN(Cc3cccc(F)c3)CC2)c(NC(=O)c2ccccc2)c1
Ratio (Exportin-1 [1]): 0.72

Structure (SMILES): O=C(O)c1ccc(N2CCN(c3ccccc3F)CC2)c(NC(=O)c2ccc(Br)cc2)c1
Ratio (Exportin-1 [1]): 0.68

Structure (SMILES): O=C(O)c1ccc(N2CCN(CC(=O)N3CCCC3)CC2)c(NC(=O)c2ccccc2)c1
Ratio (Exportin-1 [1]): 1.08

Structure (SMILES): Cc1ccc(Cl)cc1N1CCN(c2ccc(C(=O)O)cc2NC(=O)c2ccc(C(F)(F)F)cc2)CC1
Activity (HeLa): Active
Ratio (Exportin-1 [2]): 0.35

Structure (SMILES): COC(=O)c1ccc(N2CCN(c3ccccc3C(F)(F)F)CC2)c(NC(=O)c2ccc(Br)cc2)c1
inhibition (Exportin-1 [3]): inactive

Structure (SMILES): COC(=O)c1ccc(N2CCN(c3cc(C(F)(F)F)cc(C(F)(F)F)c3)CC2)c(NC(=O)c2ccc(Br)cc2)c1
inhibition (Exportin-1 [5]): inactive
inhibition (Exportin-1 [3]): inactive

Structure (SMILES): COC(=O)c1ccc(N2CCN(c3cc(Cl)ccc3C)CC2)c(NC(=O)c2ccc(Cl)cc2)c1
inhibition (Exportin-1 [3]): inactive

Structure (SMILES): O=C(O)c1ccc(N2CCN(c3ccc(F)cc3)CC2)c(NC(=O)c2ccc(F)cc2)c1
Ratio (Exportin-1 [1]): 1.15

Structure (SMILES): O=C(O)c1ccc(N2CCN(c3cccc(C(F)(F)F)c3)CC2)c(NC(=O)c2ccc(Br)cc2)c1
Activity (HeLa): Active
Ratio (Exportin-1 [2]): 0.29

Structure (SMILES): COC(=O)c1ccc(N2CCN(c3cc(Cl)ccc3OC)CC2)c(NC(=O)c2ccc(Cl)cc2)c1
inhibition (Exportin-1 [3]): inactive

Structure (SMILES): COC(=O)c1ccc(N2CCN(c3cc(Cl)ccc3C)CC2)c(NC(=O)c2ccc(Br)cc2)c1
inhibition (Exportin-1 [3]): inactive

Structure (SMILES): Cc1cccc(C(=O)Nc2cc(C(=O)O)ccc2N2CCN(c3ccccc3F)CC2)c1
Ratio (Exportin-1 [1]): 1.13

Structure (SMILES): Cc1cccc(N2CCN(c3ccc(C(=O)O)cc3NC(=O)c3ccc(F)cc3)CC2C)c1 (centres undefined)
Ratio (Exportin-1 [1]): 0.87

Structure (SMILES): O=C(O)c1ccc(N2CCN(c3cccc(C(F)(F)F)c3)CC2)c(NC(=O)c2ccc(F)cc2)c1
Ratio (Exportin-1 [1]): 0.28
inhibition (Exportin-1 [4]): inactive
inhibition (Exportin-1 [3]): Active

Structure (SMILES): Cc1ccc(C)c(N2CCN(c3ccc(C(=O)O)cc3NC(=O)c3ccccc3C)CC2)c1
Ratio (Exportin-1 [1]): 1.09

Structure (SMILES): O=C(O)c1ccc(N2CCN(c3ccccc3C(F)(F)F)CC2)c(NC(=O)c2ccc(Br)cc2)c1
Activity (HeLa): Active
Ratio (Exportin-1 [2]): 0.28

Structure (SMILES): O=C(O)c1ccc(N2CCC(N3CCCCC3)CC2)c(NC(=O)c2ccc(F)cc2)c1
Ratio (Exportin-1 [1]): 0.83

Structure (SMILES): COC(=O)c1ccc(N2CCN(c3cc(C(F)(F)F)ccc3C)CC2)c(NC(=O)c2ccc(Cl)cc2)c1
inhibition (Exportin-1 [3]): inactive

Structure (SMILES): Cc1cccc(S(=O)(=O)Nc2cc(C(=O)O)ccc2N2CCN(c3ccc(F)cc3)CC2)c1
Ratio (Exportin-1 [1]): 0.84

Structure (SMILES): COC(=O)c1ccc(N2CCN(c3cc(C(F)(F)F)ccc3C(F)(F)F)CC2)c(NC(=O)c2ccc(Br)cc2)c1
inhibition (Exportin-1 [5]): inactive
inhibition (Exportin-1 [3]): inactive

Structure (SMILES): O=C(O)c1ccc(N2CCN(c3cc(Cl)ccc3Cl)CC2)c(NC(=O)c2ccc(Cl)cc2)c1
Activity (HeLa): Active
Ratio (Exportin-1 [2]): 0.32

Structure (SMILES): COC(=O)c1ccc(N2CCN(c3cc(Cl)ccc3Cl)CC2)c(NC(=O)c2ccc(Cl)cc2)c1
inhibition (Exportin-1 [3]): inactive

Structure (SMILES): COC(=O)c1ccc(N2CCN(c3cc(C(F)(F)F)ccc3Cl)CC2)c(NC(=O)c2ccc(Br)cc2)c1
inhibition (Exportin-1 [3]): inactive

Structure (SMILES): COc1ccccc1N1CCN(c2ccc(C(=O)O)cc2NC(=O)c2ccc(Cl)cc2)CC1
Ratio (Exportin-1 [1]): 0.88

Structure (SMILES): Cc1cccc(C(=O)Nc2cc(C(=O)O)ccc2N2CCC(CCN3CCCCC3)CC2)c1
Ratio (Exportin-1 [1]): 0.81

Further lines, with some results ahead:

Ratio (Exportin-1 [1]): 0.89
Structure (SMILES): O=C(O)c1ccc(N2CCN(c3cccc(F)c3)CC2)c(NC(=O)c2ccc(Cl)cc2)c1

Ratio (Exportin-1 [1]): 0.81
Structure (SMILES): Cc1cccc(C(=O)Nc2cc(C(=O)O)ccc2N2CCC(N3CCCCC3)CC2)c1

inhibition (Exportin-1 [3]): inactive
Structure (SMILES): COC(=O)c1ccc(N2CCN(c3cc(Cl)ccc3C)CC2)c(NC(=O)c2ccc(C(F)(F)F)cc2)c1

Ratio (Exportin-1 [1]): 0.83
Structure (SMILES): O=C(O)c1ccc(N2CCN(c3ccc(F)cc3)CC2)c(NS(=O)(=O)c2cc(F)ccc2F)c1

inhibition (Exportin-1 [3]): inactive
Structure (SMILES): COC(=O)c1ccc(N2CCN(c3cccc(C(F)(F)F)c3)CC2)c(NC(=O)c2ccc(Br)cc2)c1

Ratio (Exportin-1 [1]): 0.81
Structure (SMILES): Cc1cccc(N2CCN(c3ccc(C(=O)O)cc3NC(=O)c3ccccc3)CC2C)c1 (centres undefined)

Ratio (Exportin-1 [1]): 0.95
Structure (SMILES): Cc1ccc(C)c(S(=O)(=O)Nc2cc(C(=O)O)ccc2N2CCN(c3ccccc3F)CC2)c1

inhibition (Exportin-1 [5]): inactive
inhibition (Exportin-1 [3]): inactive
Structure (SMILES): COC(=O)c1ccc(N2CCN(c3cc(C(F)(F)F)ccc3C(F)(F)F)CC2)c(NC(=O)c2ccc(Cl)cc2)c1

Ratio (Exportin-1 [1]): 0.85
Structure (SMILES): O=C(O)c1ccc(N2CCN(c3ccc(F)cc3)CC2)c(NS(=O)(=O)c2cccc(F)c2)c1

Ratio (Exportin-1 [1]): 0.88
Structure (SMILES): O=C(O)c1ccc(N2CCN(C3CCCCC3)CC2)c(NC(=O)c2ccc(F)cc2)c1

Ratio (Exportin-1 [1]): 0.85
Structure (SMILES): O=C(O)c1ccc(N2CCN(c3ccccn3)CC2)c(NC(=O)c2ccc(Cl)cc2)c1

Ratio (Exportin-1 [1]): 0.91
Structure (SMILES): O=C(O)c1ccc(N2CCC(N3CCCCC3)CC2)c(NC(=O)c2cccc(Cl)c2)c1

Ratio (Exportin-1 [1]): 0.96
Structure (SMILES): Cc1ccc(C)c(S(=O)(=O)Nc2cc(C(=O)O)ccc2N2CCN(c3ccc(F)cc3)CC2)c1

Ratio (Exportin-1 [1]): 0.76
Structure (SMILES): Cc1cccc(C(=O)Nc2cc(C(=O)O)ccc2N2CCN(c3cccc(C)c3)C(C)C2)c1 (centres undefined)

Ratio (Exportin-1 [1]): 0.88
Structure (SMILES): O=C(O)c1ccc(N2CCN(c3ccc(F)cc3)CC2)c(NS(=O)(=O)c2ccc(F)c(F)c2)c1

Ratio (Exportin-1 [2]): 0.15
Structure (SMILES): O=C(O)c1ccc(N2CCN(c3cc(C(F)(F)F)ccc3Cl)CC2)c(NC(=O)c2ccc(Br)cc2)c1
Activity (HeLa): Active

Ratio (Exportin-1 [1]): 0.18
inhibition (Exportin-1 [4]): inactive
Structure (SMILES): Cc1ccc(Cl)cc1N1CCN(c2ccc(C(=O)O)cc2NC(=O)c2ccc(F)cc2)CC1
